Reference: patent US8877758B2, “Combinations of medicaments, containing PDE4-inhibitors and EP4-receptor-antagonists” (Boehringer Ingelheim International GmbH, priority 2010, dated 2014)
Entries after “also recorded” stand apart in the source; their conditions may differ.

Tests used:
male Wistar rats [1] = assay: Experiment 4: four-day oral treatment of rats, roflumilast-mediated effects with or without AH-6809; assay type: in vivo, rat
Experimental: group 2 (“AH-6809 group”): Six male Wistar rats were given a daily dosage of 10 mg/kg AH-6809 (preferential EP2 antagonist) at 1300 hours.

male Wistar rats [2] = assay: Experiment 2: four-day oral treatment of rats, roflumilast-mediated effects with or without SC-560 or Lumiracoxib; assay type: in vivo, rat
Description: For pharmacokinetic analysis (determining plasma levels of the substances) one rat from each group was used on day 4; these rats were no longer available for the investigation of other parameters.

male Wistar rats [3] = assay: Experiment 3: four-day oral treatment of rats, roflumilast-mediated effects with or without MF-498; assay type: in vivo, rat
male Wistar rats [4] = assay: as above; assay type: in vivo, rat; conditions: 20 mg/kg MF-498 p.o. at 1300 hours, four days, no roflumilast
Experimental: group 2 (“MF-498 group”): Six male Wistar rats were given a daily dosage of 20 mg/kg MF-498 (EP4 antagonist) in each case at 1300 hours.

male Wistar rats [5] = assay: Experiment 1: four-day oral treatment of rats, roflumilast-mediated effects with or without diclofenac
Experimental: Six male Wistar rats in each group were treated for four days with the following substances (all substances are given p.o.=orally):
Group 1 (“control group”): Six male Wistar rats were given a daily dose of 0.5% Natrosol (placebo) at the times 0800, 1300 and 1700 hours.
Group 2 (“diclofenac group”): Six male Wistar rats were given a daily dose of 1 mg/kg of diclofenac (NSAID) at the times 0800 and 1700 hours and 0.5% Natrosol (placebo) at 1300 hours.
Group 3 (“roflumilast group”): Six male Wistar rats were given a daily dose of 0.5% Natrosol (placebo) at 0800 and 1700 hours and 10 mg/kg roflumilast (PDE4 inhibitor) at 1300 hours.
Group 4 (“roflumilast+diclofenac group”): Six male Wistar rats were given a daily dose of 1 mg/kg diclofenac (NSAID) at the times 0800 and 1700 hours and 10 mg/kg roflumilast (PDE4 inhibitor) at 1300 hours.
For pharmacokinetic analysis (determining the plasma levels of the substances) on day 4 one rat from each group was used; these rats were no longer available for other parameters under investigation.
During the experiment the body weights of the animals were determined and the differences in the body weights of the rats from the different groups towards the end of the experiment were shown as a percentage change from the time of the first administration (=day 1, 0800 hours (=time t0)). The average±standard deviation of the body weights at time t0 was 355±17 g.
At the end of the experiment (day 5, 95 hours after t0 (t0=the time of the first administration on day 1, 0800)) the proportion of neutrophils (in % of white blood cells, FIG. 2) were determined from the blood of 4 or 5 of the rats from the individual groups. In addition, the weights of the animals' spleens were measured and the mesenteries were dissected for histopathological investigation for vasculitis (multifocal perivascular mononuclear/polymorphonuclear infiltration).

[6] = AH-6809 and 10 mg/kg Roflumilast p.o. at 1300 hours, four days
[7] = 2 mg/kg p.o. at 0800 and 1700 hours + 10 mg/kg Roflumilast at 1300 hours, four days
[8] = 20 mg/kg MF-498 and 10 mg/kg Roflumilast p.o. at 1300 hours, four days
[9] = 10 mg/kg Roflumilast p.o. at 1300 hours for four days, read-out day 5, 95 hours after t0
[10] = 1 mg/kg diclofenac p.o. at 0800 and 1700 hours + 10 mg/kg roflumilast at 1300 hours, four days

Q: What does the source list for `CC(C)Oc1ccc2c(=O)c3cc(C(=O)O)ccc3oc2c1` [AH6809, 6-isopropoxy-9-oxoxanthene-2-carboxylic acid]?
A: parameters measured after administration on its own (body weight, spleen weight, neutrophils, mesenteric vasculitis) (male Wistar rats [1]; 10 mg/kg AH-6809 p.o. at 1300 hours, four days, no roflumilast): very similar to the control group; influence of co-administration on roflumilast-mediated loss of body weight (FIG. 13) (male Wistar rats [1]; [6]): no indications that the EP2 preferential receptor antagonist AH-809 had any influence; influence of co-administration on roflumilast-mediated loss of spleen weight (FIG. 14) (male Wistar rats [1]; [6]): no indications that the EP2 preferential receptor antagonist AH-809 had any influence; influence of co-administration on roflumilast-mediated mesenteric vasculitis (monocyte/polymorphonuclear perivascular infiltration, FIG. 16) (male Wistar rats [1]; [6]): no indications that the EP2 preferential receptor antagonist AH-809 had any influence; influence of co-administration on roflumilast-mediated neutrophilia (FIG. 15) (male Wistar rats [1]; [6]): no indications that the EP2 preferential receptor antagonist AH-809 had any influence

Q: Which “effect of co-administration on roflumilast-mediated loss of body weight (FIG. 5)” value (male Wistar rats [2]; [7]) does the source give for `Cc1ccc(Nc2c(F)cccc2Cl)c(CC(=O)O)c1` [Lumiracoxib] here?
A: The value was “substantially reduced or prevented”.

Q: What about the “effect of co-administration on roflumilast-mediated loss of spleen weight (FIG. 6)” value (male Wistar rats [2]; [7]) of the same molecule?
A: The value was “substantially reduced or prevented”.

Q: And the “effect of co-administration on roflumilast-mediated mesenteric vasculitis (monocyte/polymorphonuclear perivascular infiltration, FIG. 8)” value (male Wistar rats [2]; [7])?
A: The value was “substantially reduced or prevented”.

Q: And the “effect of co-administration on roflumilast-mediated neutrophilia (FIG. 7)” value (male Wistar rats [2]; [7])?
A: Its value is “substantially reduced or prevented”.

Q: What about the “parameters measured after administration on its own (body weight, spleen weight, neutrophils, mesenteric vasculitis)” value (from here on “parameters measured after administration”) (male Wistar rats [2]; 2 mg/kg p.o. at 0800 and 1700 hours, four days, no roflumilast) of the same molecule?
A: The value was “very similar to the control groups”.

Q: With `CCOc1c2c(c(OCC)c3ncccc13)CN(c1ccc(CS(=O)(=O)NC(=O)Cc3ccccc3OC)cc1C)C2=O` [MF-498, N-{[4-(5,9-diethoxy-6-oxo-6,8-dihydro-7H-pyrrolo(3,4-g)quinolin-7-yl)-3-methylbenzyl)sulphonyl}-2-(2-methoxyphenyl)acetamide] as the molecule, how does the “effect of co-administration on roflumilast-mediated loss of body weight (FIG. 9)” value (male Wistar rats [3]; [8]) read?
A: The value was “substantially reduced”.

Q: What about the “effect of co-administration on roflumilast-mediated loss of spleen weight (FIG. 10)” value (male Wistar rats [3]; [8]) of the same molecule?
A: The value was “substantially reduced”.

Q: And the “effect of co-administration on roflumilast-mediated mesenteric vasculitis (monocyte/polymorphonuclear perivascular infiltration, FIG. 12)” value (male Wistar rats [3]; [8])?
A: Its value is “substantially reduced”.

Q: What about the “effect of co-administration on roflumilast-mediated neutrophilia (FIG. 11)” value (male Wistar rats [3]; [8]) of the same molecule?
A: Its value is “substantially reduced”.

Q: And the “differences in the weight of the spleen between the Roflumilast group and the Roflumilast+MF-498 group (statistics)” value (male Wistar rats [3]; 20 mg/kg MF-498 and 10 mg/kg Roflumilast p.o., one animal of the Roflumilast group had an unusually small loss of spleen weight)?
A: Its value is “do not achieve statistical significance”.

Q: And the “parameters measured after administration” value (male Wistar rats [4])?
A: Its value is “very similar to the control group”.

Q: For `O=C(Nc1c(Cl)cncc1Cl)c1ccc(OC(F)F)c(OCC2CC2)c1` [Roflumilast], which “PDE4 inhibitor-mediated side effects observed in the Roflumilast group” value (male Wistar rats [2]; [9]) is on record?
A: The value was “loss of body weight; also recorded: loss of spleen weight; also recorded: neutrophilia; also recorded: mesenteric vasculitis”.

Q: And the “PDE4 inhibitor-mediated side effects observed in the Roflumilast group” value (male Wistar rats [3]; [9])?
A: The value was “loss of body weight; also recorded: loss of spleen weight; also recorded: neutrophilia; also recorded: mesenteric vasculitis”.

Q: What about the “PDE4 inhibitor-mediated side effects observed in the Roflumilast group” value (male Wistar rats [1]; [9]) of the same molecule?
A: Its value is “loss of body weight; also recorded: loss of spleen weight; also recorded: neutrophilia; also recorded: mesenteric vasculitis”.

Q: What about the “death of animals in the roflumilast group” value (male Wistar rats [5]; 10 mg/kg roflumilast p.o. daily, six rats per group) of the same molecule?
A: Its value is “died between day 4 and day 5”.

Q: Which “effect of co-administration on roflumilast-mediated loss of body weight (FIG. 1)” value (male Wistar rats [5]; [10]) does the source give for `O=C(O)Cc1ccccc1Nc1c(Cl)cccc1Cl` [diclofenac] here?
A: The value was “substantially reduced or prevented”.

Q: And the “effect of co-administration on roflumilast-mediated loss of spleen weight (FIG. 2)” value (male Wistar rats [5]; [10])?
A: The value was “substantially reduced or prevented”.

Q: And the “effect of co-administration on roflumilast-mediated mesenteric vasculitis (monocyte/polymorphonuclear infiltration into the mesentery, FIG. 4)” value (male Wistar rats [5]; [10])?
A: The value was “substantially reduced or prevented”.

Q: What about the “effect of co-administration on roflumilast-mediated neutrophilia (FIG. 3)” value (male Wistar rats [5]; [10]) of the same molecule?
A: Its value is “substantially reduced or prevented”.

Q: What about the “parameters measured after administration” value (male Wistar rats [5]; 1 mg/kg diclofenac p.o. at 0800 and 1700 hours, four days, no roflumilast) of the same molecule?
A: Its value is “very similar to the control groups”.
